Measurements as given in patent publication EP0885186B1, “AMINO ACID DERIVATIVES, PHARMACEUTICAL COMPOSITIONS CONTAINING THESE COMPOUNDS AND PROCESSES FOR PREPARING THEM” (Dr. Karl Thomae GmbH, priority 1995, dated 1997).
Each block holds one compound with its values, some of them ahead of it.

What was measured:
NPY activity = assay: NPY-antagonism in vitro, isolated perfused rat kidney, NPY-induced perfusion pressure increase; parameters: species or system rats; settings: inhibition of pressure increase by NPY (1µM) bolus
Experimental: B. NPY-antagonism in vitro
Male rats (CHbb: THOM, 300 to 350 g) are given heparin (100 IU, i.v.) and the animals are then killed by a blow to the back of the neck. The abdomen is opened along the centre of the body and the left kidney is removed after the insertion of catheters in the renal artery, renal vein and ureter. The isolated kidney is immediately perfused with a modified Krebs-Ringer solution having the following composition (4 ml/minute):
A mixture of 95% O2/5% CO2 is passed through the solution which is kept at a temperature of 37°C. The perfusion pressure is measured continuously using a pressure gauge. After a 60 minute stabilisation period the perfusion rate is adjusted so as to obtain a perfusion pressure of approximately 100 mm Hg. After a further 30 minutes the experiment is started and NPY (1µM) is administered as a bolus (0.1 ml) at 15 minute intervals until the pressure increase observed reaches a constant value. The compounds to be tested are given in the form of a continuous infusion over a period of 5 minutes and then NPY is injected. After a 30 minute wash-out period the next highest concentration of test substance is investigated. 3 to 5 different concentrations of the particular compound are tested on each occasion. […]

[1] = test system: NPY-induced blood pressure effects; assay: In vivo NPY-antagonism, pithed rats, NPY-induced increase in diastolic blood pressure; settings: test substance injected 1 min before NPY 10 µg/kg i.v.
Experimental: C. In vivo NPY-antagonism
Male rats of normal blood pressure (Chbb:THOM, 300 to 350 g) are anaesthetised with sodium hexobarbital (150 mg/kg, i.p.). After intubation of the trachea the animals are pithed by introducing a blunt needle through the eye into the spinal bone marrow channel. The animals are ventilated with oxygen-rich ambient air using a respiratory pump (20 strokes/minute). A cannula is inserted in the left carotid artery and the arterial blood pressure is measured using a pressure gauge (Braun Melsungen Combitrans) connected to a recording device. For injection purposes a catheter is placed in the left jugular vein through which heparin is administered (200 IU/kg, i.v.). After the blood pressure has been stabilised, the animals are given 2 bolus injections of NPY (10 µg/kg, i.v.) at intervals of 15 minutes. The average increase in diastolic blood pressure is taken as the reference value (= 100%). The test substances are injected in increasing doses (4 to 6 doses) at intervals of 15 minutes. One minute after administration of the test substance, NPY is administered.
The antagonistic effect of the test substances is determined by plotting the percentage inhibition of the NPY-induced blood pressure effects against the logarithm of the concentration of active substance.

NPY-induced food intake = assay: Food intake in satiated rats after NPY application to the paraventricular nucleus; format: in vivo; settings: for Food intake following NPY application: 2 h intake, satiated rats; for % Inhibition of food intake: versus vehicle + NPY
Experimental: D. In vivo Studies in rats: Food intake in satiated rats
For these determinations food intake was measured in normal satiated rats after application of NPY to the paraventricular nucleus (PVN) in the presence or absence of the test compound. Male Chbb: Thom rats weighing between 300 and 350 g were used for all experiments. The rats were individually housed in stainless steel cages where water and food were available ad libitum.
Rats under Pentobarbital anaesthesia were stereotactically implanted with a stainless steel double guide cannula targeted bilaterally at the PVNs. Stereotactic coordinates were: -1.8mm caudal, 0.5mm lateral to bregma and 7.0mm below the skull surface. Injection cannulae extended the guide cannulae by 1 mm. Animals were allowed to recover from surgery for at least 10 days before being used in the experiments. Rats were handled and mock-injected during the one-week recovery period to habituate them to the injection procedure.
Animals treated with both test compounds and NPY were treated first with the test compound. Then, 15 min. after PVN infusion of the test compound or vehicle (control) 1 µg of NPY was administered by PVN infusion.
Food intake was measured by placing preweighed pellets into the cages at the time of NPY injection. Pellets were removed from the cage at 2 h post NPY injection. The food intake of animals treated with test compound was calculated as a percentage of the food intake of control animals, i.e., animals treated with vehicle.

food-deprived rats = assay: Food intake in food-deprived rats; format: in vivo; settings: 24 hour food deprived rats, 15 µg, bilaterally, into PVN
Experimental: Food intake in food-deprived rats
Food-deprivation experiments were conducted with male Chbb:Thom rats weighing between 300 and 350 g. The animals were individually housed for the duration of the study and allowed free access to normal food together with tap water. Food was removed from the animals for 24 hours starting at 8:00 a.m. At the end of the fasting period compound or vehicle was administered to the animals by infusion into the PVN. Food was returned to the animals and their food intake monitored at various time periods during the following 24 hour period. The food intake of animals treated with test compound was calculated as a percentage of the food intake of control animals (i.e., animals treated with vehicle).

NPY-Y1 receptor = target: T1, NPY-Y1 receptor (Homo sapiens, UniProt P25929); assay: Studies of binding with SK-N-MC cells, displacement of [125I]-Bolton-Hunter-NPY; settings: inhibition of specific binding of [125I]-Bolton-Hunter-NPY, 3 hours at ambient temperature
T1 construct: endogenous in cells; host or cells: SK-N-MC cells (whole cells in suspension)
T1 sequence (P25929 1-384): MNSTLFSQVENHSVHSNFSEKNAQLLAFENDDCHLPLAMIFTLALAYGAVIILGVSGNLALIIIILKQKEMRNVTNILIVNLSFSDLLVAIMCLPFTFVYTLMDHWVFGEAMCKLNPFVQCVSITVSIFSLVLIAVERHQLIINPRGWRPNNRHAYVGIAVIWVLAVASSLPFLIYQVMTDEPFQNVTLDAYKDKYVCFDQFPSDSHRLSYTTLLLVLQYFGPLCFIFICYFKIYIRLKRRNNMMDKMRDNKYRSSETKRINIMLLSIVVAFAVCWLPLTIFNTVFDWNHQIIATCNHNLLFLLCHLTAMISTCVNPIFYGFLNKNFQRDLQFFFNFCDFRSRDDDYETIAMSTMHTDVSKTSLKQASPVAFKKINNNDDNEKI
Experimental: A. Studies of binding with SK-N-MC cells (expressing the human Y1-receptor)
The cells are detached using a mixture of 0.02% EDTA in PBS and resuspended in 10 ml of incubation medium (MEM/25 mM Hepes + 0.5% BSA, 50 µM PMSF, 0.1% bacitracin, 3.75 mM CaCl2) per 40 million cells approx. After 5 minutes' centrifuging (150 x g) the pellet is resuspended in the same volume and, after a further washing step in 10 ml of incubation medium, counted and diluted to 1.25 million cells/ml. Then 200 µl of a suspension of 1.25 million cells/ml is incubated for 3 hours at ambient temperature with 25 µl of a 300 pM solution of [^125I]-Bolton-Hunter-NPY and increasing concentrations (10^-11 to 10^-6 M) of the test substances, whilst maintaining a total volume of 250 µl. Incubation is ended by centrifuging (10 minutes at 3000 x g and 4°C). After washing once with PBS, the radioactivity of the pellet is measured in a gamma counter. The radioactivity thus obtained represents the sum of specific and non-specific binding of [^125I]-Bolton-Hunter-NPY. The proportion of non-specific binding is defined as that radioactivity which is bound in the presence of 1 µM NPY. The IC50 values of the unlabelled test substances are determined graphically. They represent the concentration of the test substance in question at which the specific binding of[^125I]-Bolton-Hunter-NPY to the NPY-Y1 receptor is inhibited by 50%.

- pIC50 (NPY activity): 8.12 mol/l
Compound: N=C(N)NCCC[C@@H](NC(=O)C(c1ccccc1)c1ccccc1)C(=O)NCc1ccc(CNC(N)=O)cc1 [(A), (R)-N-[[4-(aminocarbonylaminomethyl)phenyl]methyl]-N^2-(diphenylacetyl)-argininamide]
- pID50 [1]: 8.11 mol/kg
- Food intake following NPY application (NPY-induced food intake; 15 µg of compound by PVN infusion 15 min before 1 µg NPY): 2.62 g/animal
- % Inhibition of food intake (NPY-induced food intake; 15 µg of compound by PVN infusion): 25.9%
- Food intake following NPY application (NPY-induced food intake; 30 µg of compound by PVN infusion 15 min before 1 µg NPY): 1.67 g/animal
- % Inhibition of food intake (NPY-induced food intake; 30 µg of compound by PVN infusion): 52.8%
- Food intake following NPY application (NPY-induced food intake; 60 µg of compound by PVN infusion 15 min before 1 µg NPY): 1.07 g/animal
- % Inhibition of food intake (NPY-induced food intake; 60 µg of compound by PVN infusion): 69.8%
- duration of significant reduction in food intake (food-deprived rats): at least 4 h

- IC50 (NPY-Y1 receptor): 0.63 nM
Compound: N=C(N)NCCC[C@@H](NC(=O)C(c1ccccc1)c1ccccc1)C(=O)NCc1ccc(CC(N)=O)cc1 [(C), (R)-N-[[4-(aminocarbonylmethyl)phenyl]methyl]-N^2-(diphenylacetyl)-argininamide]

- IC50 (NPY-Y1 receptor): 0.75 nM
Compound: CCNC(=O)NCc1ccc(CNC(=O)[C@@H](CCCNC(=N)N)NC(=O)C(c2ccccc2)c2ccccc2)cc1 [(D), (R)-N^2-(diphenylacetyl)-N-[[4-(ethylaminocarbonylamino-methyl)phenyl]methyl]-argininamide]

More lines, now with the values behind:

Compound: CCOC(=O)CNC(=O)NCc1ccc(CNC(=O)[C@@H](CCCNC(=N)N)NC(=O)C(c2ccccc2)c2ccccc2)cc1 [(E), (R)-N^2-(diphenylacetyl)-N-[[4-(ethoxycarbonylmethylamino-carbonylaminomethyl)-phenyl)methyl]-argininamide]
- IC50 (NPY-Y1 receptor): 0.4 nM

Compound: N=C(N)NCCC[C@@H](NC(=O)C(c1ccc(O)cc1)c1ccc(O)cc1)C(=O)NCc1ccc(CNC(N)=O)cc1 [(G), (R)-N-[[4-(aminocarbonylaminomethyl)phenyl]methyl]-N^2-[bis-(4-hydroxyphenyl)-acetyl]-argininamide]
- IC50 (NPY-Y1 receptor): 0.17 nM

Compound: NPY: NPY, agonist applied to the paraventricular nucleus (1 µg) to elicit feeding response in satiated rats
- two hour food intake (NPY-induced food intake; NPY 1µg into PVN, 0.5 g in animals injected with vehicle): 3.5 g

Compound: CN(CCCC(NC(=O)C(c1ccccc1)c1ccccc1)C(=O)NCc1ccc(O)cc1)C(=N)N (racemic) [(B), (R,S)-N^5-(aminoiminomethyl)-N^2-(diphenylacetyl)-N-[(4-hydroxyphenyl)methyl]-N^5-methyl-ornithinamide]
- IC50 (NPY-Y1 receptor): 0.62 nM
- pIC50 (NPY activity): 8.41 mol/l
- pID50 [1]: 7.87 mol/kg

Compound: N=C(N)NCCC[C@@H](NC(=O)C(c1ccc(Cl)cc1)c1ccc(Cl)cc1)C(=O)NCc1ccc(CNC(N)=O)cc1 [(F), (R)-N-[[4-(aminocarbonylaminomethyl)phenyl]methyl]-N^2-[bis-(4-chlorophenyl)-acetyl]-argininamide]
- IC50 (NPY-Y1 receptor): 0.35 nM
